The source of these data is patent US20170027940A1, “METHOD FOR TREATING CANCER” (STICHTING HET NEDERLANDS KANKER INSTITUUT, priority 2014, published 2017).

SMILES strings stand for the structures.

In assay [1] the test system is BRAFV600E mutant melanoma cell line (04.07). Nature of the assay: sensitivity of screening cell line to ERK inhibitor. The note with it: not all cells are killed even at high concentration. Format: cell-based, human. How it is done:
The insertional mutagenesis screen was performed as described previously (Lu et al. Proc Natl Acad Sci U S A. (2009) 22;106(38):16339-44). Briefly, an intermediate sensitive melanoma cell line of low passage (Me104.07) was infected separately with the three different VBIM constructs (SD1-3). Two days after infection cells were exposed to 1 μM […] for three weeks till single colonies had formed. These were picked and separately cultured. For identification of insertions Splinkerette-PCR was used according to the published protocol and Sanger sequencing applied on amplified products.
To identify proteins conferring resistance to MAPK pathway inhibition by the recently available ERK inhibitor 5CH772984, we performed a lentiviral insertional mutagenesis screen using the VBIM system. Carrying a GFP-sequence and a strong CMV promoter, the virus integrates in the genome, resulting in an activation of downstream sequences that leads to overexpression of a FLAG-tagged protein. Due to […] excision the insertion can be excised by addition of 4-Hydroxytamoxifen (4-OHT). […] We infected this cell line with the three versions of the insertional mutagenesis vector (SD1-3). After three weeks of culturing in the presence of 1 μM SCH772984, we were able to pick drug-resistant clones and individually expanded them. […]

Assay [2] concerns BRAF and BRAF/MEK inhibitor-resistant cells. The note with it: Morris et al. 2013; cited from earlier work.
The test system of assay [3] is AXL-expressing PLX4270-resistant melanoma cells. In words: long-term viability assay, crystal violet staining. Format: cell-based, human. The settings on record: 0.3 μM AXL inhibitor, nine days, in two out of three resistant cell lines. As to the method: FIG. 12: AXL-expressing PLX4270-resistant melanoma cells were exposed to 0.3 μM AXL inhibitor for nine days and the remaining cells stained with crystal violet.
(§1) Cell line sources: Melanoma cell lines and HEK293T were cultured in DMEM/9% FBS (Sigma), 2 mM glutamine, 100 U/mL penicillin and 0.1 mg/mL streptomycin (all Gibco) under standard conditions. HEK293T cells were used for virus production for MITF-overexpression and shRNAs. Briefly HEK293T cells were transfected with the plasmid of interest and the helper plasmids (pMDLglpRRE, pHCMV-G, and pRSVrev). Viral supernatant was either fresh frozen or subsequently used for infection. Infected melanoma cells were positively selected with puromycin (Sigma). For dose response curve and colony formation assay cells were plated in a line-specific manner. Equal concentration of inhibitors was added one day after set up. For short-term viability assay (dose response curve) cells were plated in a 96-well format and drugs diluted with the HP D300 Digital Dispenser (Tecan). […] Two hours later luminescence was measured by the infinite M200 microplate reader (Tecan, Giessen, Germany). […]
Next, we determined the expression pattern of these RTKs in acquired resistance, particularly in PLX4720-sensitive cells and their resistant counterparts. […]

For assay [4], the system named is MITF^endo^_^hi and MITF^endo^_^lo cell lines. Nature of the assay: dose response curve (short-term viability assay). Format: cell-based, human. The note with it: four MITF^endo^_^lo versus four MITF^endo^_^hi cell lines.
Protocol: Cell line sources: Melanoma cell lines and HEK293T were cultured in DMEM/9% FBS (Sigma), 2 mM glutamine, 100 U/mL penicillin and 0.1 mg/mL streptomycin (all Gibco) under standard conditions. […] For dose response curve and colony formation assay cells were plated in a line-specific manner. Equal concentration of inhibitors was added one day after set up. For short-term viability assay (dose response curve) cells were plated in a 96-well format and drugs diluted with the HP D300 Digital Dispenser (Tecan). After three to five days incubation old medium was replaced by a dilution of CellTiter Blue reagent or CellTiter-Glo Luminescent Cell Viability Assay (Promega, Madison, Wiss.) in medium. Two hours later luminescence was measured by the infinite M200 microplate reader (Tecan, Giessen, Germany).
(§2) We then determined the spectrum of drug sensitivity among the MITF^endo^_^lo and MITF^endo^_^hi cells.
Assay [5] deals with PLX4720-resistant MITF^acq^_^gain cells. Nature of the assay: long-term viability assay, crystal violet staining. Format: cell-based, human. The settings on record: crystal violet after 6 days. How it is done:
FIG. 5: Loss of MITF confers cross-resistance and increases invasiveness of resistant cells. Two PLX4270-resistant cells lines (Me1888 and SkMe128) and their treatment-naïve counterparts were treated with either ERKi, MEKi, the BRAFinhibitor Dabrafenib or a combination of the latter and stained with crystal violet after 6 days of treatment.
as §1

The test system of assay [6] is MITF^endo^_^lo and MITF^endo^_^hi BRAF mutant melanoma cells. In words: cell proliferation assay and PARP cleavage. Format: cell-based, human. The settings on record: 5 μM, six days; MITF^endo^_^lo versus MITF^endo^_^hi cells.
Protocol: FIG. 7: BRAFV600E mutant melanoma cells were plated in low density and treated with 5 μM PLX4270 for 6 days or left untreated and stained with crystal violet (left panel).
Cell line sources: Melanoma cell lines and HEK293T were cultured in DMEM/9% FBS (Sigma), 2 mM glutamine, 100 U/mL penicillin and 0.1 mg/mL streptomycin (all Gibco) under standard conditions. […] For dose response curve and colony formation assay cells were plated in a line-specific manner. Equal concentration of inhibitors was added one day after set up. For short-term viability assay (dose response curve) cells were plated in a 96-well format and drugs diluted with the HP D300 Digital Dispenser (Tecan). After three to five days incubation old medium was replaced by a dilution of CellTiter Blue reagent or CellTiter-Glo Luminescent Cell Viability Assay (Promega, Madison, Wiss.) in medium. Two hours later luminescence was measured by the infinite M200 microplate reader (Tecan, Giessen, Germany). Long-term viability assays were performed in 6-well or 12-well format. Inhibitors solutions were replaced every two to three days and plates stained with crystal violet after six to nine days of treatment (as indicated). For immunoblot analysis cells were treated on 10 cm dishes and snap-frozen after harvesting.
as §2
Assay [7] deals with receptor tyrosine kinases (RTKs). In words: phospho-RTK array. Format: cell-based, human. The settings on record: 5 μM, two days.
Protocol: Phospho-RTK assay was performed using the human Phospho-RTK Array from RD Systems (Minneapolis, USA). All steps were performed according to the manufactures protocol.
Encouraged by these findings, we compared the phosphorylation status of RTKs in one MITF^endo^_^lo and one MITF^endo^_^lo cell line.
The next assay has as its system ERK phosphorylation. In words: immunoblot of ERK phosphorylation. Format: cell-based, human. The note with it: 5 μM; irrespective of MITF status.
The next assay concerns MITF. In words: MITF expression during acquisition of resistance. Format: cell-based, human. The note with it: short-term exposure, M229 and M238 MITF^acq^_^loss melanoma cell lines. How it is done: RNA was isolated using Trizol (Ambion), following standard protocol. Reverse transcription was performed using a kit from Invitrogen. Primers were designed using Primer Express software. QRT-PCR was performed with SYBR green master mix (Applied Biosystems) on a StepOnePlus Real-Time PCR system (Applied Biosystems, Warrington, UK). RNA levels were normalized against beta-actin or RPL13. Following primers were used: To study the dynamics of MITF downregulation as a function of the acquisition of a resistant phenotype, two independent MITF^acq^_^loss melanoma cell lines (M229 and […]; {Shi:2014fm}) were permanently exposed to 1 μM vemurafenib and monitored in time.

Protocol for ERK phosphorylation: For immunoblot analysis cells were treated on 10 cm dishes and snap-frozen after harvesting.
Cells were lysed in RIPA buffer and protein concentration measured with Bio-Rad protein assay. Immunoblots were performed according to standard protocols on 4 to 12% bis-Tris precast or 3-8% tris-acetate gels (NuPage). […] MAP kinase p44/42 thy202/Tyr204 (9106) and PDGFRbeta (31695) from Cell Signaling.

For the molecule `O=C(Nc1ccc2[nH]nc(-c3ccncc3)c2c1)[C@@H]1CCN(CC(=O)N2CCN(c3ccc(-c4ncccn4)cc3)CC2)C1` [SCH772984], in [1], the “sensitivity to the inhibitor” value is listed as “intermediately sensitive”. In assay [2], the proliferation entry was “effectively block proliferation”.

Turning to `Nc1nc(Nc2ccc3c(c2)CCC(N2CCCC2)CC3)nn1-c1cc2c(nn1)-c1ccccc1CCC2` (stereo not shown) [R428], the “proliferation/viability upon drug treatment” value in assay [3] was “strong decrease in proliferation/viability”.

For `CC(=O)Nc1cccc(-n2c(=O)n(C3CC3)c(=O)c3c(Nc4ccc(I)cc4F)n(C)c(=O)c(C)c32)c1` [MEKi], in assay [4], the “increase in resistance, as measured from the IC50 values” was “up to 1000 fold”.

`CC(C)(C)c1nc(-c2cccc(NS(=O)(=O)c3c(F)cccc3F)c2F)c(-c2ccnc(N)n2)s1` [Dabrafenib]: in assay [5], the “sensitivity in long-term experiment” value is “resistant”.

On to `CCCS(=O)(=O)Nc1ccc(F)c(C(=O)c2c[nH]c3ncc(Cl)cc23)c1F` [PLX4720], for which, in assay [6], the “survival of cells upon exposure” value was “clear survival benefit”. The entries for the “activation of RTKs” value in [7] (MITF^endo^_^hi cells) and in assay [7] (MITF^endo^_^lo cells) were “only a minor activation” and “further increased”, respectively. Further, the ERK phosphorylation result with ERK phosphorylation is listed as “diminished”. In addition, the MITF expression entry with MITF is recorded as “sharply dropped”.
